Test results from patent publication US20240238294A1, “ANTICANCER THERAPY” (Boehringer Ingelheim International GmbH, priority 2021, published 2024).
Like-named read-outs stand apart in the source and are kept apart here. One block for each compound: values may come before it.

Experiments:
[1] = tested on: H358 cells with KRAS G12C + Y96D; settings: 2D, monotherapy
Description: (§1) Briefly, each KRAS mutation was introduced using a Prime STAR Mutagenesis Basal Kit (Takara) with designed primers into the pBABE-puro-KRas construct (Addgene, Cambridge, MA, USA). Retroviral particles were generated by co-transfection of each pBABE-puro-KRAS construct and pVSV-G vector (Clontech, Fremont, CA, USA) into gp-IRES 293 cells with FuGENE6 transfection reagent (Roche Diagnostics, Basel, Switzerland). Viral particles were concentrated using a retrovirus concentration kit (Clontech). […] The transfected Ba/F3 cells or H358 cells were selected with 0.8-1.0 μg/mL or 2.0 μg/mL of puromycin, respectively. […]
(§2) In the two-dimensional (2D) growth inhibition assay, 5x10^3 cells were cultured in 96-well plates for 24 hours and treated with reagents at ten different concentrations for 72 hr. […] The amount of formazan dye, which reflects cell viability, was measured by reading the absorbance at 450 nm using a multiplate reader (Tecan, Mannedorf, Switzerland). […] IC50 values were determined by a nonlinear regression curve fit utilizing a variable slope model with normalized the response in GraphPad prism version 8 (GraphPad Software, San Diego, CA). […]

[2] = tested on: H358 cells with KRAS G12C + Y96S; settings: 2D, monotherapy
Description: as §1, §2

[3] = tested on: H358 cells with KRAS G12C + Y96D; settings: 3D, monotherapy
Description: (§3) Briefly, each KRAS mutation was introduced using a Prime STAR Mutagenesis Basal Kit (Takara) with designed primers into the pBABE-puro-KRas construct (Addgene, Cambridge, MA, USA). Retroviral particles were generated by co-transfection of each pBABE-puro-KRAS construct and pVSV-G vector (Clontech, Fremont, CA, USA) into gp-IRES 293 cells with FuGENE6 transfection reagent (Roche Diagnostics, Basel, Switzerland). Viral particles were concentrated using a retrovirus concentration kit (Clontech). Ba/F3 cells (3×103) or H358 cells (1×104) were transfected with each retrovirus and cultured at 37° C. for a few days. The transfected Ba/F3 cells or H358 cells were selected with 0.8-1.0 μg/mL or 2.0 μg/mL of puromycin, respectively. […]
as §2

[4] = tested on: H358 cells with KRAS G12C + Y96S; settings: 3D, monotherapy
Description: as §3, §2

[5] = tested on: Ba/F3 cells harboring KRAS G12C + A59S (introduced); assay: growth inhibition assay, Ba/F3 cells with introduced KRAS G12C plus secondary mutation; format: cell-based, murine; settings: Mus musculus, BaF3; Table 3, Ba/F3 G12C + A59S, 72 hours
Description: (§4) Briefly, each KRAS mutation was introduced using a Prime STAR Mutagenesis Basal Kit (Takara) with designed primers into the pBABE-puro-KRas construct (Addgene, Cambridge, MA, USA). Retroviral particles were generated by co-transfection of each pBABE-puro-KRAS construct and pVSV-G vector (Clontech, Fremont, CA, USA) into gp-IRES 293 cells with FuGENE6 transfection reagent (Roche Diagnostics, Basel, Switzerland). Viral particles were concentrated using a retrovirus concentration kit (Clontech). Ba/F3 cells (3×103) or H358 cells (1×104) were transfected with each retrovirus and cultured at 37° C. for a few days. The transfected Ba/F3 cells or H358 cells were selected with 0.8-1.0 μg/mL or 2.0 μg/mL of puromycin, respectively. After puromycin selection, presence of each KRAS mutation was confirmed as follows; total RNA was extracted from cells using a mirVana miRNA Isolation Kit (Qiagen, Hilden, Germany), and cDNA was generated by reverse transcription using ReverTra Ace (TOYOBO, Osaka, Japan). The KRAS coding sequence was amplified by PCR. The KRAS nucleotide sequence was checked by Sanger sequencing using the 3130 or 3500XL Genetic Analyzer (Applied Biosystems, Waltham, MA).
(§5) In the two-dimensional (2D) growth inhibition assay, 5x10^3 cells were cultured in 96-well plates for 24 hours and treated with reagents at ten different concentrations for 72 hr. Cell viability assays were performed using Cell Counting Kit-8 (Dojindo Laboratories, Kumamoto, Japan). The amount of formazan dye, which reflects cell viability, was measured by reading the absorbance at 450 nm using a multiplate reader (Tecan, Mannedorf, Switzerland). In the 3D growth inhibition assay, 5×10^3 cells were embedded in growth factor-reduced Matrigel (Corning, New York, USA) and cultured in RPMI 1640 medium (Wako) with 10% FBS (Sigma-Aldrich) and P/S (Wako) in 96-well plates. After 72 hours of incubation, cells were treated with the indicated concentrations for 72 hours, and a cell viability assay was performed as described above. IC50 values were determined by a nonlinear regression curve fit utilizing a variable slope model with normalized the response in GraphPad prism version 8 (GraphPad Software, San Diego, CA).
(§6) The RI value was calculated with the following formula: IC50 of each reconstructed Ba/F3 cell/IC50 of parental Ba/F3 cells with KRAS G12C.
(§7) The results are shown as the mean values of three individual experiments. Error bars indicate the standard deviation (SD).

[6] = tested on: Ba/F3 cells harboring KRAS G12C + Y96D (introduced); assay: as above; format: cell-based, murine; settings: Table 3, Ba/F3 G12C + Y96D
Description: as §4, §5, §6, §7

[7] = tested on: Ba/F3 cells harboring KRAS G12C + Y96S (introduced); assay: as above; format: cell-based, murine; settings: Table 3, Ba/F3 G12C + Y96S
Description: as §4, §5, §6, §7

[8] = tested on: Ba/F3 cells harboring KRAS G12C; assay: growth inhibition assay, Ba/F3 cells with KRAS G12C; format: cell-based, murine; settings: Mus musculus, BaF3; Table 3, Ba/F3 G12C, 72 hours
Description: as §3, §2

[9] = tested on: H358 cells harboring G12C plus Y96D; settings: 72 hours, FIG. 4
Description: as §3, §2

[10] = tested on: H358 cells harboring G12C plus Y96S; settings: 72 hours, FIG. 4
Description: as §3, §2

SMILES: COc1cc2nc(C)nc(N[C@H](C)c3cc(N)cc(C(F)(F)F)c3)c2cc1O[C@H]1CCOC1 [BI-3406]
growth inhibition [1]: modestly inhibited growth | growth inhibition [2]: modestly inhibited growth | growth inhibition [3]: modestly inhibited growth | growth inhibition [4]: modestly inhibited growth

IC50 [5]: 3050 nM | IC50 ([6]; Mus musculus, BaF3, 72 h): > 1000 nM | IC50 ([6]; 72 hours): 1090 nM | IC50 ([7]; Mus musculus, BaF3, 72 h): > 1000 nM | IC50 ([7]; 72 hours): 1150 nM | IC50 [8]: 455 nM
SMILES: C[C@@H]1OCC2(CCN(c3cnc(Sc4ccnc(N)c4Cl)c(N)n3)CC2)[C@@H]1N [TNO 155]

SMILES: C=CC(=O)N1CCN(c2nc(=O)n(-c3c(C)ccnc3C(C)C)c3nc(-c4c(O)cccc4F)c(F)cc23)[C@@H](C)C1 [sotorasib]
IC50 compared to parental H358 cells [9]: approximately 30 times | IC50 compared to parental H358 cells [10]: approximately 30 times
